{"source": "patent US20100113478A1", "about": "“INDOLONE MODULATORS OF 5-HT3 RECEPTOR” (AUSPEX PHARMACEUTICALS, INC., priority 2008, published 2010)", "origin": "cited, not measured here", "conditions": "women compared with men", "data": [{"smiles": "Cc1[nH]cnc1CN1CCc2c(c3ccccc3n2C)C1=O", "note": "[alosetron, 5-methyl-2-((5-methyl-1H-imidazol-4-yl)methyl)-2,3,4,5-tetrahydro-1H-pyrido[4,3-b]indol-1-one]", "values": [{"measurement": "alosetron clearance lower in women than in men", "result": 30, "unit": "%"}]}]}
